Laboratory results from patent publication US7892350B2, “Sacrificial agents for fly ash concrete” (Boral Material Technologies Inc., priority 2003, dated 2011).

How the values were obtained:
[1] = Adsorption/precipitation of SA or AEA in 10 wt % aqueous fly ash or cement slurries at pH 12.5; type: physicochemical; settings: initial SA 3 mM
Protocol: Adsorption/Precipitation of Sacrificial Agents (SA) or Air Entrainment Agents (AEA) in 10 wt % Aqueous Fly Ash Slurries at pH 12.5:
(§1) The pH of the solutions were adjusted to 12.5 with NaOH.
Adsorption/Precipitation in FA or Cement Slurries: In this protocol, aqueous slurries containing 10 wt % FA or cement were prepared as described above, except that in this case, the cement was added directly into a solution of the SA or AEA in the following proportions: 3.0 g cement or FA, and 27 g of 3 mM sacrificial agent, or 27 g of 1050 mg/l AEA; the latter were prepared in the same way as in the precipitation test above. The residual (soluble) SA or AEA content in the solution was also determined by UV or COD.

[2] = Paste air entrainment, Maximum air protocol
How it was run: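 Pastes of 400 g cementitious powder in water plus additives, hand-mixed 1 min then mixer-stirred 2 min at 25 °C; water/binder ratio set so additive-free paste gives 115±5 mm mini-slump spread at 10 min. Air content calculated from mass of paste filling a fixed-volume cylinder at 6, 36 and 66 min, paste at rest between readings and hand-stirred 1 min beforehand.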

[3] = Paste air entrainment, Minimum air protocol
Protocol: Preparation of pastes: Pastes were prepared by pouring 400 g of cementitious powder in the 350-400 g of solution (water and additives) in a vessel (8.4 cm dia,×14.5 cm height) while gently stirring with a spatula; the exact quantity of water depends on the selected W/B ratio (see below); rapid hand mixing was continued for 1 minute, followed by intense stirring at 25° C. during 2 min using a hand-held mixer (BRAUN model MR400). The level of air entrained is dependent on the mode of utilisation of the mixer, namely the height of the mixer from the bottom of the vessel and the length of the mixing stroke; the following protocols were adopted.
Minimum air protocol: The BRAUN mixer is positioned at 1.0 inch from the bottom of the mixing vessel and the up-down motion of the mixer is limited to a 1.0 inch displacement; this provided ‘minimum air’ entrained air levels and is later referred to as ‘Minimum air protocol’ (Results reported in Table 6, col. 1 and Table 7).
Fluidity measurements: For all air entrainment measurements, the initial fluidity of the paste (without additives) was controlled using the ‘mini-slump’ procedure widely used for paste and grouts. In this protocol, a portion of the paste was transferred into the min-slump cone (a 2¼″ high, 1½″ bottom diameter, ¾″ top diameter cone); excess paste was skimmed-off with a straight; the cone was then raised and the spread diameter of the paste was recorded (average of two measurements). The fluidity is measured at 10 minutes after mixing. The paste is returned to the batch and reserved for subsequent AE measurements. The fluidity of the paste (without SA and AEA) is adjusted by changing the amount of water (water/cementitious ratio) which yields a spread diameter of 115±5 mm. The latter is monitored regularly.
Air entrainment measurements: For air entrainment measurements, a portion of the paste was transferred to overfill a Plexiglas cylinder (3¾ inches height, 2 inches interior diameter), which was then levelled flush to the top of the cylinder with a straight edge. The mass of the filled cylinder, minus the weight of the empty cylinder, is then recorded and used to calculate the amount of air according to the following formula: […]
This procedure was carried out at three times at 30 min. intervals (6, 36 and 66 min); the paste was let to stand at rest between measurements, and was stirred gently by hand for one minute prior to the subsequent air entrainment measurements.
Typical mixture compositions for air entrainment measurements in pastes containing a single additive using ‘Minimum air protocol’ (results shown in Table 6, col. 1): […]

[4] = Precipitation in slurry extract or leachate; type: physicochemical; settings: pH 12.5, entries in parentheses
Protocol: as §1
Precipitation in slurry extract or leachate: To perform this test, FA or cement leachate were prepared in advance, by filtering two liters of a 10 wt % FA, or cement, slurry in 0.03N NaOH which had been left to stand under slow agitation for 30 min; 2.5 g of the filtrate solution was mixed with 22.5 g of the SA or AEA solution in a 50 ml polypropylene centrifuge tube; the latter was shaken vigorously in an orbital shaker (Eberbach Corporation) for 30 min at room temperature, centrifuged for 5 min and then the supernatant solution was filtered (0.45 μm). The SA or AEA content of the solution was determined using an Ultraviolet-Visible (UV) spectrometer or by COD (Chemical Oxygen Demand) measurement.
Entries in parentheses: % precipitation when reacted with solutions extracted from the fly ash slurries (Results in Table 5).

Compound: OCCOc1ccccc1 [EGPE, Ethylene glycol phenyl ether]
- Adsorption (wt % Adsorbed) ([1]; 10 wt % fly ash B1 (LOI 4.36%) slurry, Air 30/Air 40 0.105 wt %): 12 wt %
- Adsorption (wt % Adsorbed) ([1]; 10 wt % fly ash C1, class C (LOI 1.62%) slurry, Air 30/Air 40 0.105 wt %): 12 wt %
- Adsorption (wt % Adsorbed) ([1]; 10 wt % fly ash C2 (LOI 3.32%) slurry): 6 wt %
- Adsorption (wt % Adsorbed) ([1]; 10 wt % fly ash M1 (LOI […]) slurry, Air 30/Air 40 0.105 wt %): 4 wt %
- Adsorption (wt % Adsorbed) ([1]; 10 wt % fly ash M2 (LOI 5.34%) slurry, Air 30/Air 40 0.105 wt %): 14 wt %
- Adsorption (wt % Adsorbed) ([1]; 10 wt % fly ash M3 (LOI 11.33%) slurry, Air 30/Air 40 0.105 wt %): 14 wt %
- Adsorption (wt % Adsorbed) ([1]; 10 wt % fly ash N (LOI 0.30%) slurry): 1 wt %
- Air entrained at 66 min ([2]; 50:50 fly ash B1 (LOI 4.36%):PCA paste, Air 30 (0.0125%)/NS/X=1/4/4, X = the labelled SA): 4 vol %
- Air entrained at 66 min ([2]; 50:50 fly ash B1 (LOI 4.36%):PCA paste, Air 30 (0.0125 wt %)/ND/X=1/4/4, X = the labelled SA): 14 vol %
- Air entrained at 66 min ([2]; 50:50 fly ash C1 (LOI 1.62%):PCA paste, Air 30 (0.0125%)/NS/X=1/4/4, X = the labelled SA): 9 vol %
- Air entrained at 66 min ([2]; 50:50 fly ash C1 (LOI 1.62%):PCA paste, Air 30 (0.0125 wt %)/ND/X=1/4/4, X = the labelled SA): 19 vol %
- Air entrained at 66 min ([2]; 50:50 fly ash D (LOI […]):PCA paste, Air 30 (0.0125%)/NS/X=1/4/4, X = the labelled SA): 15 vol %
- Air entrained at 66 min ([2]; 50:50 fly ash D (LOI […]):PCA paste, Air 30 (0.0125 wt %)/ND/X=1/4/4, X = the labelled SA): 22 vol %
- Air entrained at 66 min ([2]; 50:50 fly ash M1 (LOI […]):PCA paste, Air 30 (0.0125%)/NS/X=1/4/4, X = the labelled SA): 11 vol %
- Air entrained at 66 min ([2]; 50:50 fly ash M1 (LOI […]):PCA paste, Air 30 (0.0125 wt %)/ND/X=1/4/4, X = the labelled SA): 18 vol %
- Air entrained at 66 min ([2]; 50:50 fly ash M2 (LOI 5.34%):PCA paste, Air 30 (0.0125%)/NS/X=1/4/4, X = the labelled SA): 3 vol %
- Air entrained at 66 min ([2]; 50:50 fly ash M2 (LOI 5.34%):PCA paste, Air 30 (0.0125 wt %)/ND/X=1/4/4, X = the labelled SA): 11 vol %
- Air entrained at 66 min ([2]; 50:50 fly ash M3 (LOI 11.33%):PCA paste, Air 30 (0.0125%)/NS/X=1/4/4, X = the labelled SA): 3 vol %
- Air entrained at 66 min ([2]; 50:50 fly ash M3 (LOI 11.33%):PCA paste, Air 30 (0.0125 wt %)/ND/X=1/4/4, X = the labelled SA): 13 vol %
- Air entrained at 66 min ([2]; 50:50 fly ash R (LOI […]):PCA paste, Air 30 (0.0125%)/NS/X=1/4/4, X = the labelled SA): 11 vol %
- Air entrained at 66 min ([2]; 50:50 fly ash R (LOI […]):PCA paste, Air 30 (0.0125 wt %)/ND/X=1/4/4, X = the labelled SA): 18 vol %
- Air entrained ([2]; PCA cement paste, 0.0125% SA or AEA alone, Maximum air protocol): 1 vol %
- Air entrained at 66 min ([2]; PCA paste, no fly ash, Air 30 (0.0125 wt %)/ND/X=1/4/4, X = the labelled SA): 23 vol %
- air entrained (average) ([2]; fly ash:cement pastes, SA added at four (4) times the fixed Air 30 dosage (0.0125%)): 7%
- Average of air entrained at 66 min ([2]; over the fly ash:PCA pastes of Table 9, Air 30 (0.0125 wt %)/ND/X=1/4/4, X = the labelled SA): 17%
- Air entrained ([3]; 50:50 fly ash B1 (LOI 4.36%):PCA paste, 0.1 wt % Air 30 alone or with 0.05 wt % of the SA): 4 vol %
- Air entrained ([3]; 50:50 fly ash C1 (LOI 1.62%):PCA paste, 0.1 wt % Air 30 alone or with 0.05 wt % of the SA): 5 vol %
- Air entrained ([3]; 50:50 fly ash D (LOI […]):PCA paste, 0.1 wt % Air 30 alone or with 0.05 wt % of the SA): 5 vol %
- Air entrained ([3]; 50:50 fly ash M1 (LOI […]):PCA paste, 0.1 wt % Air 30 alone or with 0.05 wt % of the SA): 5 vol %
- Air entrained ([3]; 50:50 fly ash M2 (LOI 5.34%):PCA paste, 0.1 wt % Air 30 alone or with 0.05 wt % of the SA): 4 vol %
- Air entrained ([3]; 50:50 fly ash M3 (LOI 11.33%):PCA paste, 0.1 wt % Air 30 alone or with 0.05 wt % of the SA): 4 vol %
- Air entrained ([3]; 50:50 fly ash R (LOI […]):PCA paste, 0.1 wt % Air 30 alone or with 0.05 wt % of the SA): 5 vol %
- Air entrained ([3]; PCA cement paste, 0.1% SA or AEA alone, Minimum air protocol): 0 vol %
- Average of air entrained ([3]; over the fly ash:PCA pastes of Table 7, 0.1 wt % Air 30 alone or with 0.05 wt % of the SA): 4%
- Precipitation (wt % precipitated) ([4]; solution extracted from 10 wt % fly ash B1 (LOI 4.36%) slurry): 0 wt %
- Precipitation (wt % precipitated) ([4]; solution extracted from 10 wt % fly ash C1, class C (LOI 1.62%) slurry): 0 wt %
- Precipitation (wt % precipitated) ([4]; solution extracted from 10 wt % fly ash C2 (LOI 3.32%) slurry): 0 wt %
- Precipitation (wt % precipitated) ([4]; solution extracted from 10 wt % fly ash M1 (LOI […]) slurry): 1 wt %
- Precipitation (wt % precipitated) ([4]; solution extracted from 10 wt % fly ash M2 (LOI 5.34%) slurry): 0 wt %
- Precipitation (wt % precipitated) ([4]; solution extracted from 10 wt % fly ash M3 (LOI 11.33%) slurry): 0 wt %
- Precipitation (wt % precipitated) ([4]; solution extracted from 10 wt % fly ash N (LOI 0.30%) slurry): 0 wt %
